Reference: patent US11724992B2 (Novartis AG, priority 2017, dated 2023)

System: IL-1β production in PMA-differentiated THP-1 cells
Assay: IL-1β production in PMA-differentiated THP-1 cells stimulated with gramicidin (hTHP-1 assay, 2% fetal bovine serum; Procedures 1-3)
Format: cell-based, human
Conditions: Homo sapiens, THP-1, hTHP-1 assay containing 2% fetal bovine serum; bound; read-out: hTHP-1 IC50 (Average IC50 of compounds in hTHP-1 assay)
Method in brief: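 PMA-differentiated (20 ng/ml, 16-18 h) THP-1 cells in RPMI with 2% FBS, 50,000 cells/well, preincubated 1 h with compound (final 100–0.0017 μM, 0.37% DMSO), then stimulated with 5 μM gramicidin for 2 h. Supernatant IL-1β measured by HTRF.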

IC50 [nM] | Structure (SMILES)
> 30000 | CNS(=O)(=NC(=O)N(C)c1c2c(cc3c1CCC3)CCC2)c1cnc(C(C)(C)O)s1 (stereo not shown) [Compound 249]

Same assay, conditions: hTHP-1 assay containing 2% fetal bovine serum; class symbols; read-out: hTHP-1 IC50 (Average IC50 of compounds in hTHP-1 assay)

IC50 [nM] | Structure (SMILES)
8 to 40 | CNS(=O)(=NC(=O)Nc1c2c(cc3c1CCC3)CCC2)c1cnc(C(C)(C)O)s1 (single isomer, unassigned) [Example 374, (S) or (R)-N′-((1,2,3,5,6,7-hexahydro-s-indacen-4-yl)carbamoyl)-2-(2-hydroxypropan-2-yl)-N-methylthiazole-5-sulfonimidamide]
5000 to 30000 | CC(c1ccc(S(N)(=O)=NC(=O)Nc2c3c(cc4c2CCC4)CCC3)cc1)N(C)C (single isomer, unassigned) [Example 375, (S,R) or (S,S) or (R,S) or (R,R)-4-(1-(dimethylamino)ethyl)-N′-((1,2,3,5,6,7-hexahydro-s-indacen-4-yl)carbamoyl)benzenesulfonimidamide]
5000 to 30000 | CC(c1ccc(S(N)(=O)=NC(=O)Nc2c3c(cc4c2CCC4)CCC3)cc1)N(C)C (single isomer, unassigned) [Example 376, (S,S) or (S,R) or (R,R) or (R,S)-4-(1-(dimethylamino)ethyl)-N′-((1,2,3,5,6,7-hexahydro-s-indacen-4-yl)carbamoyl)benzenesulfonimidamide]
40 to 200 | CC(c1ccc(S(N)(=O)=NC(=O)Nc2c3c(cc4c2CCC4)CCC3)cc1)N(C)C (single isomer, unassigned) [Example 377, (R,R) or (R,S) or (S,S) or (S,R)-4-(1-(dimethylamino)ethyl)-N′-((1,2,3,5,6,7-hexahydro-s-indacen-4-yl)carbamoyl)benzenesulfonimidamide]
200 to 1000 | CC(c1ccc(S(N)(=O)=NC(=O)Nc2c3c(cc4c2CCC4)CCC3)cc1)N(C)C (single isomer, unassigned) [Example 378, (R,S) or (R,R) or (S,R) or (S,S)-4-(1-(dimethylamino)ethyl)-N′-((1,2,3,5,6,7-hexahydro-s-indacen-4-yl)carbamoyl)benzenesulfonimidamide]
8 to 40 | CN(C)Cc1cc(F)c(S(N)(=O)=NC(=O)Nc2c3c(cc4c2CCC4)CCC3)s1 (single isomer, unassigned) [Example 381, (R) or (S)-5-((dimethylamino)methyl)-3-fluoro-N′-((1,2,3,5,6,7-hexahydro-s-indacen-4-yl)carbamoyl)thiophene-2-sulfonimidamide]
1000 to 5000 | CN(C)Cc1cc(F)c(S(N)(=O)=NC(=O)Nc2c3c(cc4c2CCC4)CCC3)s1 (single isomer, unassigned) [Example 382, (S) or (R)-5-((dimethylamino)methyl)-3-fluoro-N′-((1,2,3,5,6,7-hexahydro-s-indacen-4-yl)carbamoyl)thiophene-2-sulfonimidamide]
8 to 40 | CC(C)(O)c1cc(F)c(S(N)(=O)=NC(=O)Nc2c3c(cc4c2CCC4)CCC3)s1 (single isomer, unassigned) [Example 385, (R) or (S)-3-fluoro-N′-((1,2,3,5,6,7-hexahydro-s-indacen-4-yl)carbamoyl)-5-(2-hydroxypropan-2-yl)thiophene-2-sulfonimidamide]
200 to 1000 | CC(C)(O)c1cc(F)c(S(N)(=O)=NC(=O)Nc2c3c(cc4c2CCC4)CCC3)s1 (single isomer, unassigned) [Example 386, (S) or (R)-3-fluoro-N′-((1,2,3,5,6,7-hexahydro-s-indacen-4-yl)carbamoyl)-5-(2-hydroxypropan-2-yl)thiophene-2-sulfonimidamide]
1000 to 5000 | COC(C)(C)c1ncc(S(N)(=O)=NC(=O)Nc2c3c(cc4c2CCC4)CCC3)s1 (single isomer, unassigned) [Example 387, (S) or (R)-N′-((1,2,3,5,6,7-hexahydro-s-indacen-4-yl)carbamoyl)-2-(2-methoxypropan-2-yl)thiazole-5-sulfonimidamide]
40 to 200 | COC(C)(C)c1ncc(S(N)(=O)=NC(=O)Nc2c3c(cc4c2CCC4)CCC3)s1 (single isomer, unassigned) [Example 388, (R) or (S)-N′-((1,2,3,5,6,7-hexahydro-s-indacen-4-yl)carbamoyl)-2-(2-methoxypropan-2-yl)thiazole-5-sulfonimidamide]
200 to 1000 | COC(C)(C)c1ccc(S(N)(=O)=NC(=O)Nc2c3c(cc4c2CCC4)CCC3)cc1 (single isomer, unassigned) [Example 399, (R) or (S)-N′-((1,2,3,5,6,7-hexahydro-s-indacen-4-yl)carbamoyl)-4-(2-methoxypropan-2-yl)benzenesulfonimidamide]
5000 to 30000 | COC(C)(C)c1ccc(S(N)(=O)=NC(=O)Nc2c3c(cc4c2CCC4)CCC3)cc1 (single isomer, unassigned) [Example 400, (S) or (R)-N′-((1,2,3,5,6,7-hexahydro-s-indacen-4-yl)carbamoyl)-4-(2-methoxypropan-2-yl)benzenesulfonimidamide]
200 to 1000 | CNCc1ccc(S(N)(=O)=NC(=O)Nc2c3c(cc4c2CCC4)CCC3)c(F)c1 (single isomer, unassigned) [Example 403, (R) or (S)-2-fluoro-N′-((1,2,3,5,6,7-hexahydro-s-indacen-4-yl)carbamoyl)-4-((methylamino)methyl)benzenesulfonimidamide]
5000 to 30000 | CNCc1ccc(S(N)(=O)=NC(=O)Nc2c3c(cc4c2CCC4)CCC3)c(F)c1 (single isomer, unassigned) [Example 404, (S) or (R)-2-fluoro-N′-((1,2,3,5,6,7-hexahydro-s-indacen-4-yl)carbamoyl)-4-((methylamino)methyl)benzenesulfonimidamide]
5000 to 30000 | CN1CCCC1c1ccc(S(=N)(=O)NC(=O)Nc2c3c(cc4c2CCC4)CCC3)cc1 (single isomer, unassigned) [Example 407, (R,R) or (R,S) or (S,S) or (S,R)-N-((1,2,3,5,6,7-hexahydro-s-indacen-4-yl)carbamoyl)-4-(1-methylpyrrolidin-2-yl)benzenesulfonimidamide]
1000 to 5000 | CN1CCCC1c1ccc(S(=N)(=O)NC(=O)Nc2c3c(cc4c2CCC4)CCC3)cc1 (single isomer, unassigned) [Example 408, (S,R) or (S,S) or (R,S) or (R,R)-N-((1,2,3,5,6,7-hexahydro-s-indacen-4-yl)carbamoyl)-4-(1-methylpyrrolidin-2-yl)benzenesulfonimidamide]
200 to 1000 | CN1CCCC1c1ccc(S(=N)(=O)NC(=O)Nc2c3c(cc4c2CCC4)CCC3)cc1 (single isomer, unassigned) [Example 409, (R,S) or (S,R) or (S,R) or (R,R)-N-((1,2,3,5,6,7-hexahydro-s-indacen-4-yl)carbamoyl)-4-(1-methylpyrrolidin-2-yl)benzenesulfonimidamide]
40 to 200 | CN1CCCC1c1ccc(S(=N)(=O)NC(=O)Nc2c3c(cc4c2CCC4)CCC3)cc1 (single isomer, unassigned) [Example 410, (R,S) or (S,R) or (R,S or (S,S)-N-((1,2,3,5,6,7-hexahydro-s-indacen-4-yl)carbamoyl)-4-(1-methylpyrrolidin-2-yl)benzenesulfonimidamide]
200 to 1000 | CN(C)Cc1ccc(S(N)(=O)=NC(=O)Nc2c3c(cc4c2CCC4)CCC3)nc1 (single isomer, unassigned) [Example 413, (R) or (S)-5-((dimethylamino)methyl)-N′-((1,2,3,5,6,7-hexahydro-s-indacen-4-yl)carbamoyl)pyridine-2-sulfonimidamide]
5000 to 30000 | CN(C)Cc1ccc(S(N)(=O)=NC(=O)Nc2c3c(cc4c2CCC4)CCC3)nc1 (single isomer, unassigned) [Example 414, (S) or (R)-5-((dimethylamino)methyl)-N′-((1,2,3,5,6,7-hexahydro-s-indacen-4-yl)carbamoyl)pyridine-2-sulfonimidamide]
1000 to 5000 | CC(=O)c1ncc(S(N)(=O)=NC(=O)Nc2c3c(cc4c2CCC4)CCC3)s1 (single isomer, unassigned) [Example 417, (R) or (S)-2-acetyl-N′-((1,2,3,5,6,7-hexahydro-s-indacen-4-yl)carbamoyl)thiazole-5-sulfonimidamide]
40 to 200 | CC(=O)c1ncc(S(N)(=O)=NC(=O)Nc2c3c(cc4c2CCC4)CCC3)s1 (single isomer, unassigned) [Example 418, (S) or (R)-2-acetyl-N′-((1,2,3,5,6,7-hexahydro-s-indacen-4-yl)carbamoyl)thiazole-5-sulfonimidamide]
40 to 200 | CC(C)(O)c1ncc(S(N)(=O)=NC(=O)Nc2cc3c(c4c2CCC4)CCC3)s1 (single isomer, unassigned) [Example 419, (R) or (S)-N′-((1,2,3,6,7,8-hexahydro-as-indacen-4-yl)carbamoyl)-2-(2-hydroxypropan-2-yl)thiazole-5-sulfonimidamide]
1000 to 5000 | CC(C)(O)c1ncc(S(N)(=O)=NC(=O)Nc2cc3c(c4c2CCC4)CCC3)s1 (single isomer, unassigned) [Example 420, (S) or (R)-N′-((1,2,3,6,7,8-hexahydro-as-indacen-4-yl)carbamoyl)-2-(2-hydroxypropan-2-yl)thiazole-5-sulfonimidamide]
8 to 40 | [2H]C1([2H])CCc2cc3c(c(NC(=O)N=S(N)(=O)c4cnc(C(C)(C)O)s4)c21)C([2H])([2H])CC3 (single isomer, unassigned) [Example 421, (R) or (S)-N′-((1,2,3,5,6,7-hexahydro-s-indacen-4-yl-3,3,5,5-d4)carbamoyl)-2-(2-hydroxypropan-2-yl)thiazole-5-sulfonimidamide]
8 to 40 | [2H]C1([2H])CCc2c1cc1c(c2NC(=O)N=S(N)(=O)c2cnc(C(C)(C)O)s2)CCC1([2H])[2H] (single isomer, unassigned) [Example 423, (R) or (S)-N′-((1,2,3,5,6,7-hexahydro-s-indacen-4-yl-1,1,7,7-d4)carbamoyl)-2-(2-hydroxypropan-2-yl)thiazole-5-sulfonimidamide]
